Experimental data taken from PubChem BioAssay (NCI).
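48-hour exposure; five concentrations; linearly interpolated endpoints. Abbreviation: GI50, concentration required for 50% inhibition of growth. TGI denotes the concentration required for complete inhibition of growth.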

Columns and labels:
Assay in all cases: NCI tumour cell line growth inhibition, 48 h
UO-31 renal = tested on: UO-31 renal
OVCAR-8 ovarian = tested on: OVCAR-8 ovarian
SK-MEL-2 melanoma = tested on: SK-MEL-2 melanoma
M14 melanoma = tested on: M14 melanoma
SF-295 CNS = tested on: SF-295 CNS
SF-268 CNS = tested on: SF-268 CNS
NCI/ADR-RES ovarian = tested on: NCI/ADR-RES ovarian
LOX IMVI melanoma = tested on: LOX IMVI melanoma
IGROV1 ovarian = tested on: IGROV1 ovarian
HL-60(TB) leukemia = tested on: HL-60(TB) leukemia

| Compound | GI50 (UO-31 renal) | TGI (UO-31 renal) | GI50 (OVCAR-8 ovarian) | TGI (OVCAR-8 ovarian) | GI50 (SK-MEL-2 melanoma) | TGI (SK-MEL-2 melanoma) | GI50 (M14 melanoma) | TGI (M14 melanoma) | GI50 (SF-295 CNS) | TGI (SF-295 CNS) | GI50 (SF-268 CNS) | TGI (SF-268 CNS) | GI50 (NCI/ADR-RES ovarian) | TGI (NCI/ADR-RES ovarian) | GI50 (LOX IMVI melanoma) | TGI (LOX IMVI melanoma) | GI50 (IGROV1 ovarian) | TGI (IGROV1 ovarian) | TGI (HL-60(TB) leukemia) | GI50 (HL-60(TB) leukemia) |
| --- | --- | --- | --- | --- | --- | --- | --- | --- | --- | --- | --- | --- | --- | --- | --- | --- | --- | --- | --- | --- |
| C=C1C(=O)O[C@H]2[C@H]1CC/C(COC(=O)c1ccc(C(=O)O)s1)=C\CC[C@@]1(C)O[C@@H]21 | 1.4 µM | 3.04 µM | 2.69 µM | 7.84 µM | 2.29 µM | 5.22 µM | 1.52 µM | 3.43 µM | 5.65 µM | 18.7 µM | 2.08 µM | 4.69 µM | 3.4 µM | 26.2 µM | 1.49 µM | 3.08 µM | 2.16 µM | 5.82 µM | – | – |
| O=C1c2cccc3cc([N+](=O)[O-])cc(c23)C(=O)N1CCCN1CCN(CCCN2C(=O)c3cccc4cc([N+](=O)[O-])cc(c34)C2=O)CC1 | – | 1.01 µM | – | > 100 µM | – | 5.34 µM | – | 4.87 µM | – | 12.4 µM | – | – | – | – | – | – | – | 15.4 µM | 12.8 µM | – |
| COc1ccc(/C=[N+](\[O-])[C@H](COCc2ccccc2)c2ccccc2)cc1 | – | > 100 µM | – | > 100 µM | – | > 100 µM | – | – | – | > 100 µM | – | > 100 µM | – | – | – | > 100 µM | – | > 100 µM | 77.2 µM | – |
| Cc1ccc(C)c(NC(=O)/C(=N\NC(N)=S)C(C#N)c2ccccc2)c1 (stereo not given) | – | > 100 µM | – | > 100 µM | – | > 100 µM | – | > 100 µM | – | > 100 µM | – | > 100 µM | – | – | – | – | – | > 100 µM | > 100 µM | – |
| O=C(O)c1nnsc1COCc1ccccc1 | – | > 100 µM | – | > 100 µM | – | > 100 µM | – | > 100 µM | – | > 100 µM | – | > 100 µM | – | > 100 µM | – | > 100 µM | – | > 100 µM | – | – |
| CC/C=C\C[C@H](O)C/C=C1/C(=O)C=C[C@@H]1C/C=C\CCCC(N)=O | 1.63 µM | 3.42 µM | 3.03 µM | 11.4 µM | 2.31 µM | 5.69 µM | 2.31 µM | 6.89 µM | 2.52 µM | 6.23 µM | 2.96 µM | 11.7 µM | 2.81 µM | 12.3 µM | 0.35 µM | 1.69 µM | 3.09 µM | 12.2 µM | – | – |
| CC(SC1=CC(=O)c2c(O)ccc(O)c2C1=O)C(=O)O (stereo not given) | – | > 75.4 µM | – | > 89.3 µM | – | > 100 µM | – | > 75.8 µM | – | > 100 µM | – | > 75.1 µM | – | – | – | > 57.7 µM | – | > 68.6 µM | > 41.9 µM | – |
| CC(=O)O/C(C)=C\C(=O)O/N=C(\N)c1ccc(C)cc1 | – | > 100 µM | – | > 100 µM | – | 72.3 µM | – | 93.1 µM | – | > 100 µM | – | 91.6 µM | – | – | – | > 100 µM | – | > 100 µM | 77.3 µM | – |
| COc1cccc2c1C1=CC(=O)CCC1C(C)(C)O2 (stereo not given) | – | > 100 µM | – | > 100 µM | – | > 100 µM | – | > 100 µM | – | > 100 µM | – | > 100 µM | – | – | – | > 100 µM | – | > 100 µM | > 100 µM | – |
| CCCN(CCC)c1c([N+](=O)[O-])cc(S(N)(=O)=O)cc1[N+](=O)[O-] | – | 34.8 µM | – | 35.1 µM | – | 30.5 µM | – | 30.9 µM | – | 32.3 µM | – | 32.8 µM | – | – | – | 31.6 µM | – | 19.6 µM | – | – |
| CC(C)(C)C([O-])=C1C(=O)c2ccccc2C1=O.CC(C)(C)C([O-])=C1C(=O)c2ccccc2C1=O.CC[O-].CC[O-].[Ti+4] | 19.1 µM | 44.5 µM | 29.3 µM | 90.1 µM | 25.8 µM | 85.2 µM | 57.4 µM | > 100 µM | 28.3 µM | > 100 µM | 70.6 µM | > 100 µM | – | – | 40.4 µM | > 100 µM | 70.4 µM | > 100 µM | 67 µM | 27.1 µM |
| Cn1cc(NC(=O)c2cc(NC(=O)CCCCCC(=O)Nc3cc(C(=O)Nc4cc(C(=O)NCCC(=N)N)n(C)c4)n(C)c3)cn2C)cc1C(=O)NCCC(=N)N | – | > 100 µM | – | > 100 µM | – | – | – | > 100 µM | – | > 100 µM | – | > 100 µM | – | – | – | > 100 µM | – | > 100 µM | > 100 µM | – |
| CCOC(=O)/C=C(/CN1C(=O)c2ccccc2C1=O)c1ccccc1 | – | > 100 µM | – | > 100 µM | – | > 100 µM | – | > 100 µM | – | > 100 µM | – | > 100 µM | – | – | – | > 100 µM | – | > 100 µM | – | – |
| Cn1nnnc1[N-]Cc1ccccc1.[Au+].c1ccc([PH+](c2ccccc2)c2ccccc2)cc1 | 13 µM | 25.7 µM | 3.13 µM | 10.1 µM | 2.98 µM | 9.45 µM | 1.67 µM | 3.83 µM | 4.45 µM | 22.8 µM | 3.45 µM | 14 µM | – | – | 2.53 µM | 8.55 µM | 2.43 µM | 8.16 µM | 1.45 µM | 0.509 µM |
| O=c1oc2c3ccc4ccccc4c3n(Cc3nc4ccccc4[nH]3)c2c2ccccc12 | – | > 100 µM | – | > 100 µM | – | > 100 µM | – | > 100 µM | – | > 100 µM | – | > 100 µM | – | – | – | > 100 µM | – | > 100 µM | 20 µM | – |
| O=C(Nc1ccc(Br)cc1)c1cc(Br)cc(Br)c1O | 3.1 µM | 11.5 µM | 2.89 µM | 11 µM | 2.27 µM | 6.12 µM | 2.99 µM | 11.3 µM | 1.83 µM | 5 µM | 3.59 µM | 18.6 µM | 2.94 µM | 9.47 µM | 3.24 µM | 10.1 µM | 3.02 µM | 15.6 µM | – | – |
| COc1cc2ccc3c4cc(OC)c(OCc5ccccc5)cc4cnc3c2cc1OC | – | > 100 µM | – | > 100 µM | – | > 100 µM | – | > 100 µM | – | > 100 µM | – | > 100 µM | – | – | – | – | – | > 100 µM | – | – |
| c1ccc2c(NCCCCCCCCNc3c4ccccc4nc4ccccc34)c3ccccc3nc2c1 | – | 2.76 µM | – | 2.45 µM | – | 2.23 µM | – | 2.52 µM | – | 2.21 µM | – | 2.1 µM | – | 41.9 µM | – | – | – | 1.8 µM | – | – |
| CCCCCCCCCCCC(=O)C1=C(O)C(O)CCC1=O (stereo not given) | – | 64.9 µM | – | 36.6 µM | – | 25 µM | – | – | – | 30.5 µM | – | > 100 µM | – | – | – | 28.2 µM | – | 82.6 µM | 38.8 µM | – |
